In article PMC10483676 (ACS Omega, 2023):

Target: urease enzyme from the Jack bean (Canavalia ensiformis) (Canavalia ensiformis, UniProt P07374)
Experiment: In vitro urease assay
Format: biochemical

Chain of urease enzyme from the Jack bean (Canavalia ensiformis) (P07374 whole entry, looked up): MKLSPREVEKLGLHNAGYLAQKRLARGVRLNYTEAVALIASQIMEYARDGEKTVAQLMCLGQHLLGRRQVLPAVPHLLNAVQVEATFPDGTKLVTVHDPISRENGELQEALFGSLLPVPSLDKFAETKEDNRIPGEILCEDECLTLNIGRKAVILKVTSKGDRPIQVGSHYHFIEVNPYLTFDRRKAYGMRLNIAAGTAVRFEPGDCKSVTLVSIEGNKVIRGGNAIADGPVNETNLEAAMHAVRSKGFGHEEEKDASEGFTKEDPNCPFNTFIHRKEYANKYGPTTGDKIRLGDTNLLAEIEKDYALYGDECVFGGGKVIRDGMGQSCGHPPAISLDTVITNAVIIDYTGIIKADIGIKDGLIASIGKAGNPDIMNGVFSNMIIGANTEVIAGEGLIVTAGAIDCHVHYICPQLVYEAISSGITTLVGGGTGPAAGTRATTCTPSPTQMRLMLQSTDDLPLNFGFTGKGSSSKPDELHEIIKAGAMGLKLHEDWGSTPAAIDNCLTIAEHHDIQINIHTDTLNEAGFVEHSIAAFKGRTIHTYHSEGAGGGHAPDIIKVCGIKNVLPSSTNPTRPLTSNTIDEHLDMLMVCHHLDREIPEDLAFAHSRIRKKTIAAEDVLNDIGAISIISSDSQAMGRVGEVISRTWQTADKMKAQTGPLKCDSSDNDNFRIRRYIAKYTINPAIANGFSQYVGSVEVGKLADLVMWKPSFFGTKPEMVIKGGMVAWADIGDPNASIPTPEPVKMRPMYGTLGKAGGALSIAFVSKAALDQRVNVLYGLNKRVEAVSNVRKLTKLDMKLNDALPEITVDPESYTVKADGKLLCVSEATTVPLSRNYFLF

Compound	IC50	inhibitory potential fold higher than thiourea (relative to thiourea IC50)
COc1ccc(-c2nnc3n2N=C(c2ccc(Cl)cc2)CS3)cc1 [5b]	8.37 ± 0.16 µM	–
COc1ccc(C2=Nn3c(nnc3-c3ccc(OC)cc3)SC2)cc1 [5a]	5.91 ± 0.13 µM	–
Cc1ccccc1OCc1nn2c(-c3cccc(Br)c3)nnc2s1 [compound 4i]	9.63 ± 0.32 µM	–
Cc1ccc(OCc2nn3c(-c4cccc(Br)c4)nnc3s2)cc1 [compound 4j]	4.67 ± 0.15 µM	–
Brc1cccc(-c2nnc3n2N=C(c2cccc4ccccc24)CS3)c1 [5n]	7.2 ± 0.18 µM	–
Clc1ccc(C2=Nn3c(nnc3-c3cccc(Br)c3)SC2)cc1Cl [5p]	13 ± 0.37 µM	–
COc1ccc(-c2nnc3n2N=C(c2ccc(Cl)c(Cl)c2)CS3)cc1 [5h]	5.3 ± 0.17 µM	–
COc1ccc(-c2nnc3sc(COc4ccc(O)cc4)nn23)cc1 [4b]	25.2 ± 0.56 µM	–
O=[N+]([O-])c1ccc(C2=Nn3c(nnc3-c3cccc(Br)c3)SC2)cc1 [5o]	7.72 ± 0.31 µM	–
Fc1ccc(C2=Nn3c(nnc3-c3cccc(Br)c3)SC2)cc1 [compound 5k]	3.33 ± 0.11 µM	~6.5 fold
COc1ccc(-c2nnc3n2N=C(c2cccc4ccccc24)CS3)cc1 [5f]	10.5 ± 0.26 µM	–
Oc1ccccc1OCc1nn2c(-c3cccc(Br)c3)nnc2s1 [4g]	4.5 ± 0.13 µM	–
COc1ccc(-c2nnc3sc(COc4ccc(C)cc4)nn23)cc1 [compound 4d]	39 ± 0.53 µM	–
Cc1ccc(C2=Nn3c(nnc3-c3cccc(Br)c3)SC2)cc1 [5l]	5.56 ± 0.12 µM	–
Fc1ccc(OCc2nn3c(-c4cccc(Br)c4)nnc3s2)cc1 [compound 4l]	46.8 ± 0.63 µM	–
COc1ccc(-c2nnc3n2N=C(c2ccc(C)cc2)CS3)cc1 [5d]	5.16 ± 0.14 µM	–
COc1ccc(-c2nnc3sc(COc4ccccc4C)nn23)cc1 [compound 4c]	12 ± 0.25 µM	–
Oc1ccc(OCc2nn3c(-c4cccc(Br)c4)nnc3s2)cc1 [4h]	6.79 ± 0.24 µM	–
COc1ccc(-c2nnc3n2N=C(c2ccc(F)cc2)CS3)cc1 [5c]	6.93 ± 0.14 µM	–
Clc1ccc(C2=Nn3c(nnc3-c3cccc(Br)c3)SC2)cc1 [5j]	11.5 ± 0.38 µM	–
COc1ccc(C2=Nn3c(nnc3-c3cccc(Br)c3)SC2)cc1 [5i]	9.55 ± 0.41 µM	–
